Reference: ChEMBL document CHEMBL6109117, “Synthesis of an RBM39 Degrader That Downregulates CEP192 and Induces Disorganized Spindle Structures” (J Med Chem, 2025)
The source made the active and inactive calls. The rule behind the calls is not given here.

Tests used:
[1] = test system: HCT-116; experiment: Effect on RNA splicing in human HCT-116 cells assessed as number of alternative 3' splice sites at 2 uM incubated for 12 hrs by RNA-seq analysis; type: functional
[2] = test system: HCT-116; experiment: Effect on RNA splicing in human HCT-116 cells assessed as ESPL1 gene alternative 5' splice site at 2 uM incubated for 12 hrs by RNA-seq analysis; type: functional, cell-based
[3] = test system: HCT-116; experiment: Induction of RBM39 degradation in human HCT-116 cells incubated for 24 hrs by Western blot analysis; type: cell-based
[4] = test system: MV4-11; experiment: Induction of spliceosome function impairment in human MV4-11 cells assessed as decrease in CUL4A transcript at 1 to 10 uM incubated for 12 hrs by qRT-PCR analysis; type: functional, cell-based; conditions: dose 1-10 µM
[5] = test system: K562; experiment: Induction of spliceosome function impairment in human K562 cells assessed as decrease in CUL4A transcript at 1 to 10 uM incubated for 12 hrs by qRT-PCR analysis; type: functional, cell-based; conditions: dose 1-10 µM
[6] = test system: HCT-116; experiment: Effect on RNA splicing in human HCT-116 cells assessed as RTTN gene retention of intron at 2 uM incubated for 12 hrs by RNA-seq analysis; type: functional, cell-based
[7] = test system: HCT-116; experiment: Induction of RBM39 degradation in human HCT-116 cells at 3 to 300 nM incubated for 24 hrs in presence of MLN4924 by Western blot analysis; type: cell-based; conditions: dose 3-300 nM
[8] = test system: MV4-11; experiment: Induction of spliceosome function impairment in human MV4-11 cells assessed as increase in NCKAP1L RI transcript incubated for 12 hrs by qRT-PCR analysis; type: functional, cell-based; conditions: dose 1-10 µM
[9] = test system: HCT-116; experiment: Induction of RBM39 degradation in human HCT-116 cells at 0.05 to 5 uM incubated for 24 hrs in presence of MG132 by Western blot analysis; type: cell-based; conditions: dose 0.05-5 µM
[10] = test system: MV4-11; experiment: Induction of spliceosome function impairment in human MV4-11 cells assessed as decrease in ZNF207 transcript at 1 to 10 uM incubated for 12 hrs by qRT-PCR analysis; type: functional, cell-based; conditions: dose 1-10 µM
[11] = test system: K562; experiment: Effect on RNA splicing in human K562 cells assessed as CEP192 gene skipping exons up to 10 uM by PCR analysis; type: functional, cell-based; conditions: time 1-24 hrs
[12] = test system: HCT-116; experiment: Downregulation of RTTN expression in human HCT-116 cells incubated for 24 hrs by Western blot analysis; type: functional, cell-based
[13] = Effect on RNA splicing in human HCT-116 cells assessed as number of skipping exons at 2 uM incubated for 12 hrs by RNA-seq analysis; type: functional
[14] = test system: HCT-116; experiment: Effect on RNA splicing in human HCT-116 cells assessed as RTTN gene exon splicing at 2 uM incubated for 12 hrs by RNA-seq analysis; type: functional, cell-based
[15] = test system: K562; experiment: Effect on RNA splicing in human K562 cells assessed as CEP192 gene skipping exon at 2 uM incubated for 12 hrs by RNA-seq analysis; type: functional, cell-based
[16] = Effect on RNA splicing in human HCT-116 cells assessed as number of mutually exclusive exons at 2 uM incubated for 12 hrs by RNA-seq analysis; type: functional
[17] = test system: HCT-116; experiment: Effect on RNA splicing in human HCT-116 cells assessed as CEP192 gene exon splicing at 2 uM incubated for 12 hrs by RNA-seq analysis; type: functional, cell-based
[18] = Effect on RNA splicing in human HCT-116 cells assessed as number of alternative 5' splice sites at 2 uM incubated for 12 hrs by RNA-seq analysis; type: functional
[19] = test system: HCT-116; experiment: Induction of apoptosis in human HCT-116 cells at 0.1 to 5 uM incubated for 48 hrs by Annexin V-FITC/PI staining based flow cytometry; type: functional, cell-based; conditions: dose 0.1-5 µM
[20] = test system: HCT-116; experiment: Induction of RBM39 degradation in human HCT-116 cells at 0.1 to 1 uM incubated for 24 hrs by Western blot analysis; type: cell-based; conditions: dose 0.1-1 µM
[21] = test system: HCT-116; experiment: Induction of cell cycle arrest in human HCT-116 cells assessed as accumulation at G2/M phase at 1 uM by PI staining based flow cytometry; type: functional
[22] = test system: HCT-116; experiment: Induction of cell cycle arrest in human HCT-116 cells assessed as accumulation at G2/M phase at 0.1 to 5 uM incubated for 48 hrs by PI staining based flow cytometry; type: functional; conditions: dose 0.1-5 µM
[23] = test system: K562; experiment: Induction of spliceosome function impairment in human K562 cells assessed as increase in CUL4A RI transcript incubated for 12 hrs by qRT-PCR analysis; type: functional, cell-based; conditions: dose 1-10 µM
[24] = test system: HCT-116; experiment: Downregulation of KNL1 expression in human HCT-116 cells incubated for 24 hrs by Western blot analysis; type: functional, cell-based
[25] = test system: HCT-116; experiment: Induction of RBM39 degradation in human HCT-116 cells assessed as fold change at 0.1 uM incubated for 24 hrs by Western blot analysis relative to control; type: cell-based
[26] = test system: HCT-116; experiment: Downregulation of CEP192 expression in human HCT-116 cells incubated for 24 hrs by Western blot analysis; type: functional, cell-based
[27] = test system: HCT-116; experiment: Induction of RBM39 degradation in human HCT-116 cells assessed as fold change at 1 uM incubated for 24 hrs by Western blot analysis relative to control; type: cell-based
[28] = test system: K562; experiment: Effect on RNA splicing in human K562 cells assessed as RTTN gene skipping exon at 2 uM incubated for 12 hrs by RNA-seq analysis; type: functional, cell-based
[29] = test system: K562; experiment: Induction of spliceosome function impairment in human K562 cells assessed as decrease in NCKAP1L transcript at 1 to 10 uM incubated for 12 hrs by qRT-PCR analysis; type: functional, cell-based; conditions: dose 1-10 µM
[30] = test system: HCT-116; experiment: Induction of spliceosome function impairment in human HCT-116 cells assessed as decrease in ZNF207 exon8-exon10 RNA level at 1 to 10 uM incubated for 12 hrs by qRT-PCR analysis; type: functional, cell-based; conditions: dose 1-10 µM
[31] = test system: MV4-11; experiment: Induction of spliceosome function impairment in human MV4-11 cells assessed as decrease in NCKAP1L transcript at 1 to 10 uM incubated for 12 hrs by qRT-PCR analysis; type: functional, cell-based; conditions: dose 1-10 µM
[32] = test system: MV4-11; experiment: Induction of spliceosome function impairment in human MV4-11 cells assessed as increase in CUL4A RI transcript incubated for 12 hrs by qRT-PCR analysis; type: functional, cell-based; conditions: dose 1-10 µM
[33] = test system: HCT-116; experiment: Induction of RBM39 degradation in human HCT-116 cells at 1 uM incubated for 24 hrs by mass spectrometry-based proteomic analysis; type: cell-based
[34] = Effect on RNA splicing in human HCT-116 cells assessed as number of retention of introns at 2 uM incubated for 12 hrs by RNA-seq analysis; type: functional
[35] = Effect on mitosis in human HCT-116 cells assessed as defective mitotic cells at 1 uM incubated for 48 hrs by immunofluorescence based analysis relative to control; type: functional
[36] = test system: K562; experiment: Effect on RNA splicing in human K562 cells assessed as ESPL1 gene alternative 5' splicing site at 2 uM incubated for 12 hrs by RNA-seq analysis; type: functional, cell-based
[37] = test system: HCT-116; experiment: Induction of apoptosis in human HCT-116 cells assessed as change in PARP level at 0.1 to 5 uM incubated for 48 hrs by Western blot analysis; type: functional, cell-based; conditions: dose 0.1-5 µM
[38] = test system: K562; experiment: Effect on RNA splicing in human K562 cells assessed as ESPL1 gene skipping exon at 2 uM incubated for 12 hrs by RNA-seq analysis; type: functional, cell-based
[39] = test system: K562; experiment: Effect on RNA splicing in human K562 cells assessed as KNL1 gene skipping exon at 2 uM incubated for 12 hrs by RNA-seq analysis; type: functional, cell-based

Compound | Activity [1] | Activity [2] | Activity [3] | Activity [4] | Activity [5] | Activity [6] | Activity [7] | Activity [8] | Activity [9] | Activity [10] | Activity [11] | Activity [12] | Activity [13] | Activity [14] | Activity [15] | Activity [16] | Activity [17] | Activity [18] | Activity [19] | Activity [20] | also measured
NS(=O)(=O)c1ccc(S(=O)(=O)Nc2cccc3c(Cl)c[nH]c23)cc1 [INDISULAM] | 836 | Active | Dose-dependent-effect | Active | Active | Active | inactive | Active | inactive | Active | Time-dependent-effect; Observed Skipping Exons 42 And 28 | Dose-dependent-effect | 10485 | Active | Active | 667 | Active | 389 | inactive | Active | Activity [21]: Time-dependent-effect; Activity [22]: Active; Activity [23]: Active; Activity [24]: Dose-dependent-effect; fold change (FC) [25]: 0.59; Activity [26]: Dose-dependent-effect; fold change (FC) [27]: 0.16; Activity [28]: Active; Activity [29]: Active; Activity [30]: Active; Activity [31]: Active; Activity [32]: Active; Activity [33]: Active; Activity [34]: 1378; Activity [35]: 18.3%; Activity [36]: Active; Activity [37]: inactive; Activity [38]: Active; Activity [39]: Active
Cc1ccc(NS(=O)(=O)c2cccc(NC(=O)C(=O)N3CCC[C@@H]3CO)c2)c2[nH]cc(C#N)c12 | 745 | Active | Dose-dependent-effect | Active | Active | Active | inactive | Active | inactive | Active | Time-dependent-effect; Observed Skipping Exons 42 And 28 | Dose-dependent-effect | 8905 | Active | Active | 515 | Active | 329 | inactive | Active | Activity [21]: Time-dependent-effect; Activity [22]: Active; Activity [23]: Active; Activity [24]: Dose-dependent-effect; fold change (FC) [25]: 0.61; Activity [26]: Dose-dependent-effect; fold change (FC) [27]: 0.21; Activity [28]: Active; Activity [29]: Active; Activity [30]: Active; Activity [31]: Active; Activity [32]: Active; Activity [33]: Active; Activity [34]: 1098; Activity [35]: 21.8%; Activity [36]: Active; Activity [37]: inactive; Activity [38]: Active; Activity [39]: Active
